According to patent US20240287070A1, “FUSED HETEROCYCLIC DERIVATIVES” (Janssen Sciences Ireland Unlimited Company, priority 2021, published 2024):

Key:
[1] = tested on: HBV (HepG2.117 cell line, inducibly HBV producing); assay: Anti-HBV activity, intracellular HBV DNA by real-time PCR in HepG2.117 cell line; type: cell-based, hepatitis B virus; conditions: HepG2.117 cells, 3 days of treatment
Outline: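 Antiviral effect is expressed through intracellular HBV DNA levels, determined by real-time PCR with a virus-specific probe. These levels were measured after 3 days of treatment with compound dilutions, in HepG2.117 cells induced to replicate HBV.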

[2] = tested on: HepG2 or HepG2.117 cells; assay: Cytotoxicity, ATPlite Luminescence Assay; type: cell-based, human; conditions: 3-days incubation unless marked with *
Outline: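 HepG2/HepG2.117; compound exposure 3–4 d; viability readout = ATPlite luminescence.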

[3] = Human liver microsome stability; type: in vitro ADME; conditions: pooled human liver microsomes 0.5 mg/mL, 1 μM compound, NADPH 1 mM, 37° C., 0-60 min
Outline: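 Half-life came from elimination rate constant (negative slope of ln compound/internal standard area ratio over time), measured by cassette LC-MS after acetonitrile quench. Human liver microsome reactions, one replicate per compound, were initiated with NADPH (1 mM final) and sampled at six points up to 60 min.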

Question: For `CC(c1ccc(C2(O)CC2)cc1)N1C[C@@H](C)n2nc3c(c2C1=O)CN(C(=O)c1ccc(Cl)c(C#N)c1)[C@H](C)C3` (single isomer, unassigned) [Compound 14B, 2-Chloro-5-((3R,7R)-9-((S*)-1-(4-(1-hydroxycyclopropyl)phenyl)ethyl)-3,7-dimethyl-10-oxo-1,2,3,4,7,8,9,10-octahydropyrido[4′,3′:3,4]pyrazolo[1,5-a]pyrazine-2-carbonyl)benzonitrile], which EC50 [1] is on record?
Answer: Its EC50 is 0.015 µM.

Question: What about the CC50 [2] of the same compound?
Answer: The CC50 was greater than 50 µM.

Question: What about the “HLM Metabolism t1/2” value [3] of the same compound?
Answer: The value was 1.17 h.

Question: Which EC50 [1] does the source give for `CC(c1ccc(S(N)(=O)=O)cc1)N1C[C@@H](C)n2nc3c(c2C1=O)CN(C(=O)c1ccc(Cl)c(Cl)c1)[C@H](C)C3` (single isomer, unassigned) [Compound 16B, 4-((S*)-1-((3R,7R)-2-(3,4-dichlorobenzoyl)-3,7-dimethyl-10-oxo-1,2,3,4,7,8-hexahydropyrido[4′,3′:3,4]pyrazolo[1,5-a]pyrazin-9(10H)-yl)ethyl)benzenesulfonamide] here?
Answer: The EC50 was 0.059 µM.

Question: And the CC50 [2]?
Answer: Its CC50 is greater than 50 µM.

Question: And the “HLM Metabolism t1/2” value [3]?
Answer: The value was greater than 3 h.

Question: What does the source list for `CC(c1cnc(C(F)(F)F)nc1)N1C[C@@H](C)n2nc3c(c2C1=O)CN(C(=O)c1ccc(Cl)c(Cl)c1)[C@H](C)C3` (single isomer, unassigned) [Compound 34B, (3R,7R)-2-(3,4-dichlorobenzoyl)-3,7-dimethyl-9-((S*)-1-(2-(trifluoromethyl)pyrimidin-5-yl)ethyl)-1,2,3,4,8,9-hexahydropyrido[4′,3′:3,4]pyrazolo[1,5-a]pyrazin-10(7H)-one]?
Answer: EC50 [1]: 0.052 µM; CC50 [2]: 34.9 µM; HLM Metabolism t1/2 [3]: >3 h

Question: For `CC(c1ccc(C(C)(C)O)nc1)N1C[C@@H](C)n2nc3c(c2C1=O)CN(C(=O)c1ccc(Cl)c(C#N)c1)[C@H](C)C3` (single isomer, unassigned) [Compound 63B, 2-chloro-5-((3R,7R)-9-((S*)-1-(6-(2-hydroxypropan-2-yl)pyridin-3-yl)ethyl)-3,7-dimethyl-10-oxo-1,2,3,4,7,8,9,10-octahydropyrido[4′,3′:3,4]pyrazolo[1,5-a]pyrazine-2-carbonyl)benzonitrile], which EC50 [1] is on record?
Answer: The EC50 was 0.052 µM.

Question: What about the CC50 [2] of the same compound?
Answer: The CC50 was greater than 50 µM.

Question: And the “HLM Metabolism t1/2” value [3]?
Answer: Its value is greater than 3 h.

Question: For `CC(c1ccc(C(C)(C)O)nc1)N1C[C@@H](C)n2nc3c(c2C1=O)CN(C(=O)c1ccc(Cl)c(F)c1)[C@H](C)C3` (single isomer, unassigned) [Compound 59B, (3R,7R)-2-(4-chloro-3-fluorobenzoyl)-9-((S*)-1-(6-(2-hydroxypropan-2-yl)pyridin-3-yl)ethyl)-3,7-dimethyl-1,2,3,4,8,9-hexahydropyrido[4′,3′:3,4]pyrazolo[1,5-a]pyrazin-10(7H)-one], which EC50 [1] is on record?
Answer: The EC50 was 0.055 µM.

Question: And the CC50 [2]?
Answer: Its CC50 is greater than 50 µM.

Question: What about the “HLM Metabolism t1/2” value [3] of the same compound?
Answer: The value was greater than 3 h.

Question: With `CC(c1ccc(C(C)(C)O)nc1)N1C[C@@H](C)n2nc3c(c2C1=O)CN(C(=O)c1ccc(Cl)c(Cl)c1)[C@H](C)C3` (single isomer, unassigned) [Compound 2B, (3R,7R)-2-(3,4-dichlorobenzoyl)-9-((S*)-1-(6-(2-hydroxypropan-2-yl)pyridin-3-yl)ethyl)-3,7-dimethyl-1,2,3,4,8,9-hexahydropyrido[4′,3′:3,4]pyrazolo[1,5-a]pyrazin-10(7H)-one] as the compound, how does the EC50 [1] read?
Answer: Its EC50 is 0.015 µM.

Question: And the CC50 [2]?
Answer: The CC50 was greater than 50 µM.

Question: What about the “HLM Metabolism t1/2” value [3] of the same compound?
Answer: Its value is 2.3 h.

Question: With `C[C@@H]1Cc2nn3c(c2CN1C(=O)c1ccc(Cl)c(C(F)(F)F)c1)C(=O)N([C@@H](C)c1ccc([S@]2(=O)=NCCC2)nc1)C[C@H]3C` (relative stereo) [Compound 30D, (3R,7R)-2-(4-chloro-3-(trifluoromethyl)benzoyl)-3,7-dimethyl-9-((S*)-1-(6-((S*)-1-oxido-4,5-dihydro-3H-116-isothiazol-1-yl)pyridin-3-yl)ethyl)-1,2,3,4,8,9-hexahydropyrido[4′,3′:3,4]pyrazolo[1,5-a]pyrazin-10(7H)-one] as the compound, how does the EC50 [1] read?
Answer: The EC50 was 0.047 µM.

Question: What about the CC50 [2] of the same compound?
Answer: Its CC50 is greater than 50 µM.

Question: What about the “HLM Metabolism t1/2” value [3] of the same compound?
Answer: Its value is 0.255 h.

Question: Which results are given for `CC(c1ncc(C(F)(F)F)cn1)N1C[C@@H](C)n2nc3c(c2C1=O)CN(C(=O)c1ccc(Cl)c(Cl)c1)[C@H](C)C3` (single isomer, unassigned) [Compound 40B, (3R,7R)-2-(3,4-dichlorobenzoyl)-3,7-dimethyl-9-((S*)-1-(5-(trifluoromethyl)pyrimidin-2-yl)ethyl)-1,2,3,4,8,9-hexahydropyrido[4′,3′:3,4]pyrazolo[1,5-a]pyrazin-10(7H)-one]?
Answer: EC50 [1]: 0.26 µM; CC50 [2]: 22.9 µM; HLM Metabolism t1/2 [3]: >3 h

Question: Which EC50 [1] does the source give for `CNC(=O)C1(Oc2ccc(C(C)N3C[C@@H](C)n4nc5c(c4C3=O)CN(C(=O)c3ccc(Cl)c(C#N)c3)[C@H](C)C5)cc2)CC1` (single isomer, unassigned) [Compound 13B, 1-(4-((S*)-1-((3R,7R)-2-(4-chloro-3-cyanobenzoyl)-3,7-dimethyl-10-oxo-1,2,3,4,7,8-hexahydropyrido[4′,3′:3,4]pyrazolo[1,5-a]pyrazin-9(10H)-yl)ethyl)phenoxy)-N-methylcyclopropanecarboxamide] here?
Answer: Its EC50 is 0.091 µM.

Question: What about the CC50 [2] of the same compound?
Answer: The CC50 was greater than 50 µM.

Question: And the “HLM Metabolism t1/2” value [3]?
Answer: Its value is 2.15 h.

Question: For `CC(c1ccc(-c2ccn(C)n2)cc1)N1C[C@@H](C)n2nc3c(c2C1=O)CN(C(=O)c1ccc(Cl)c(C#N)c1)[C@H](C)C3` (single isomer, unassigned) [Compound 21B, 2-Chloro-5-((3R,7R)-3,7-dimethyl-9-((S*)-1-(4-(1-methyl-1H-pyrazol-3-yl)phenyl)ethyl)-10-oxo-1,2,3,4,7,8,9,10-octahydropyrido[4′,3′:3,4]pyrazolo[1,5-a]pyrazine-2-carbonyl)benzonitrile], which EC50 [1] is on record?
Answer: Its EC50 is 0.012 µM.

Question: What about the CC50 [2] of the same compound?
Answer: The CC50 was greater than 50 µM.

Question: What about the “HLM Metabolism t1/2” value [3] of the same compound?
Answer: Its value is 2.5 h.

Question: What does the source list for `CC(c1ccc(C(C)(C)O)nc1)N1C[C@@H](C)n2nc3c(c2C1=O)CN(C(=O)c1cc(Cl)c(Cl)cn1)[C@H](C)C3` (single isomer, unassigned) [Compound 57B, (3R,7R)-2-(4,5-dichloropicolinoyl)-9-((S*)-1-(6-(2-hydroxypropan-2-yl)pyridin-3-yl)ethyl)-3,7-dimethyl-1,2,3,4,8,9-hexahydropyrido[4′,3′:3,4]pyrazolo[1,5-a]pyrazin-10(7H)-one]?
Answer: EC50 [1]: 0.65 µM; CC50 [2]: > 50 µM; HLM Metabolism t1/2 [3]: 1.68 h

Question: Which EC50 [1] does the source give for `CC(c1cnn(C2CC2)c(=O)c1)N1C[C@@H](C)n2nc3c(c2C1=O)CN(C(=O)c1ccc(Cl)c(C(F)(F)F)c1)[C@H](C)C3` (single isomer, unassigned) [Compound 54B, (3R,7R)-2-(4-chloro-3-(trifluoromethyl)benzoyl)-9-((S*)-1-(1-cyclopropyl-6-oxo-1,6-dihydropyridazin-4-yl)ethyl)-3,7-dimethyl-1,2,3,4,8,9-hexahydropyrido[4′,3′: 3,4]pyrazolo[1,5-a]pyrazin-10(7H)-one] here?
Answer: Its EC50 is 0.01 µM.

Question: What about the CC50 [2] of the same compound?
Answer: The CC50 was greater than 50 µM.

Question: What about the “HLM Metabolism t1/2” value [3] of the same compound?
Answer: Its value is 1.95 h.

Question: Which EC50 [1] does the source give for `CC(c1cnc(C(C)(C)O)nc1)N1C[C@@H](C)n2nc3c(c2C1=O)CN(C(=O)c1ccc(Cl)c(C(F)(F)F)c1)[C@H](C)C3` (single isomer, unassigned) [Compound 35B, (3R,7R)-2-(4-chloro-3-(trifluoromethyl)benzoyl)-9-((S*)-1-(2-(2-hydroxypropan-2-yl)pyrimidin-5-yl)ethyl)-3,7-dimethyl-1,2,3,4,8,9-hexahydropyrido[4′,3′:3,4]pyrazolo[1,5-a]pyrazin-10(7H)-one] here?
Answer: Its EC50 is 0.01 µM.

Question: And the CC50 [2]?
Answer: Its CC50 is greater than 50 µM.

Question: What about the “HLM Metabolism t1/2” value [3] of the same compound?
Answer: Its value is greater than 3 h.
